Patent US12331054B2, “Perk inhibiting imidazolopyrazine compounds” (HiberCell, Inc., priority 2019, dated 2025)

Tests used:
[1] = test system: eIF2α in HEK293-EGFP-eIF2α cells; assay: PERK Cellular Assay (HEK293-EGFP-eIF2α cells, tunicamycin-induced ER stress, TR-FRET); type: cell-based; conditions: tunicamycin 2 hours
Procedure, shortened: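 Cells pre-incubated with inhibitor 30 min at 37 °C, then ER stress induced with […] tunicamycin for 2 h. TR-FRET read on lysates; ratio normalized to DMSO control as percent inhibition over a 10-point, 3-fold dilution series; IC50 from 4-parameter logistic fit.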

[2] = target: Recombinant human EIF2AK3 (PERK) catalytic domain (amino acids 536-1116) (Homo sapiens (Human), UniProt Q9NZJ5); assay: PERK In Vitro Activity Assay (isolated), TR-FRET kinase assay; conditions: isolated PERK enzyme, 1.5 μM ATP, read-out: Biochemical IC50
Chain of Recombinant human EIF2AK3 (PERK) catalytic domain (amino acids 536-1116) (Q9NZJ5 536-1116): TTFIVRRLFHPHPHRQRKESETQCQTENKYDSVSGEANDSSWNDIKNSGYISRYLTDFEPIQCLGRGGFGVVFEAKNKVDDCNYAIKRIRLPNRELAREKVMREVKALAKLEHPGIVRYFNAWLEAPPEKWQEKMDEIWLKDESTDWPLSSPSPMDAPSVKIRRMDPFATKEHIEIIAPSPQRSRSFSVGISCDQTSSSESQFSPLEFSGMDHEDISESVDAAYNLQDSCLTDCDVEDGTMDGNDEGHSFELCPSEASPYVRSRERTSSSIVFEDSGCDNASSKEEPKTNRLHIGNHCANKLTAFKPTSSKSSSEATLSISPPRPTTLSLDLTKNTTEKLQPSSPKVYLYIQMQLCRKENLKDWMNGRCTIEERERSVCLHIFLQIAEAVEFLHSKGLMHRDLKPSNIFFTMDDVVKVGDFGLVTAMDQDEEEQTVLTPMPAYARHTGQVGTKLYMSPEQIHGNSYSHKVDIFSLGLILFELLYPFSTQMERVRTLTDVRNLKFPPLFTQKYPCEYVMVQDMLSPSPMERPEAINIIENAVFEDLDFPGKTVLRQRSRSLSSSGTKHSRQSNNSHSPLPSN
Procedure, shortened: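 Recombinant PERK catalytic domain was incubated with 100–200 nM GFP-eIF2a substrate in 50 mM HEPES pH 7.5, 10 mM MgCl2, 1.0 mM EGTA and 0.01% Brij-35 for 45 min at room temperature. After a 10 mM EDTA stop, 2 nM Tb-anti-phospho-eIF2a was added for 90 min, and IC50 was fitted from TR-FRET ratios by 4-parameter logistic regression.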

IC50 [2] [nM] | SMILES | IC50 [1] [nM]
1 to 25 | [2H]C([2H])([2H])c1nc(-c2ccc(NC(=O)C(O)c3cccc(Cl)c3)c(F)c2F)c2c(N)nc(C)cn12 (stereo not drawn) [Example 140, N-[4-[8-amino-6-methyl-3-(trideuteriomethyl)imidazo[1,5-a]pyrazin-1-yl]-2,3-difluoro-phenyl]-2-(3-chlorophenyl)-2-hydroxy-acetamide] | 1 to 25
1 to 25 | [2H]C([2H])([2H])c1nc(-c2ccc(NC(=O)C(O)c3cc(F)cc(F)c3)c(F)c2F)c2c(N)ncc(Cl)n12 (stereo not drawn) [Example 156, N-[4-[8-amino-5-chloro-3-(trideuteriomethyl)imidazo[1,5-a]pyrazin-1-yl]-2,3-difluoro-phenyl]-2-(3,5-difluorophenyl)-2-hydroxy-acetamide] | 1 to 25
501 to 1000 | [2H]C([2H])([2H])c1nc(-c2ccc(NC(=O)C(O)c3cccc(F)c3)c(F)c2F)c2c(N)nc(C)cn12 (stereo not drawn) [Example 131, N-[4-[8-amino-6-methyl-3-(trideuteriomethyl)imidazo[1,5-a]pyrazin-1-yl]-2,3-difluoro-phenyl]-2-(3-fluoro-phenyl)-2-hydroxy-acetamide] | 3000 to 4000
